Source: patent publication US7109174B2, “Anticonvulsant derivatives useful for preventing the development of type II diabetes mellitus and syndrome X” (Ortho-McNeil Pharmaceutical, Inc., priority 2000, dated 2006)

What was measured:
[1] = system: ob/ob mice; assay: ob/ob mice second study: topiramate in food for 118 days; skin lesions, glucose, insulin, glycosylated hemoglobin, body weight; assay type: in vivo; design: Glycosylated hemoglobin: unit not given here; conditions: for Skin lesions Mild (mice) / Skin lesions Moderate (mice) / Skin lesions Severe (mice) / Skin lesions Total (mice): 180 mg/kg/day, N = 9
Text: It is known that ob/ob mice when allowed to eat ad libitum, develop abnormally high blood levels of insulin (hyperinsulinemia), glucose (hyperglycemia), lesions of the skin, and a high level of glycosylated hemoglobin, all of which are hallmark signs of Type II diabetes mellitus (R. R. HENRY, Ann. Intern. Med. 1996, 124, 97–103; G. W. EDELSON, Clin. Podiatr. Med. Surg. 1998, 15, 41–48; P. R. JOHNSON, M. R. GREENWOOD, B. A. HORWITZ and J. S. STERN, Annu. Rev. Nutr. 1991, 11, 325–353). Based on this knowledge of the ob/ob mouse model, two studies were designed to determine the effect of compounds of formula (I) in these mice models.
In the second study, a uniform population of mice was divided into two groups. In one group of control mice, no topiramate was added to the food for the entire 118-day period. In a second group, topiramate was added to the food in amounts sufficient to give a daily dose of 60 mg/kg for 6 days, then a daily dose of 180 mg/kg for 112 days. During the course of the dosing period the mice were examined two-times a week for skin lesions. When skin lesions were evident, the severity was estimated based on the number and size of the lesions, and given a score ranging from mild to severe (Table 2). For four of the control mice their health deteriorated to the point that they either died or had to be euthanized. Three of these four control mice had lesions (two mice were classified as severe and one mice as mild). […] By comparison none of the nine mice treated with topiramate ever developed skin lesions (Table 2). After the 118-day period was completed, all surviving mice were sacrificed and blood was obtained and prepared for subsequent analysis of plasma glucose and insulin, and glycosylated hemoglobin. […] The body weight gain was similar in both groups throughout the study. Therfore, the beneficial effects of topiramate on the biological markers of the disease cannot be secondary to the potential beneficial effect that might arise from a loss of body eight.

[2] = system: Heterozygous Non-Diabetic Mice; assay: Plasma glucose, triglycerides and body weight in heterozygous non-diabetic littermates, 11 days oral dosage; assay type: in vivo; conditions: for Plasma Glucose % Change / Plasma Triglycerides % Change: versus vehicle; for Change in Body Weight / Plasma Glucose Plasma Conc. / Plasma Triglycerides Plasma Conc.: ± SEM
Description: Six to seven week old female C57 BLK SIJ-m^+/^+ Lepr^db mice (db/db) and heterozygous littermates were purchased from The Jackson Laboratory (Bar Harbor, Me.). Upon arrival the mice were quarantined for 5 days and housed in pairs in shoe-box cages containing ALPHA-dri® bedding (Shepherd Speciality Papers, Inc., Kalamazoo, Mich.). The mice were maintained at an ambient temperature of 21 to 23° C. on a 12 hour-12 hour light-dark schedule and given access to water and food ad libitum. The diet was comprised of NIH (National Institutes of Health) Rat and Mouse/Auto 6F Reduced Fat Diet No. 5K52 (PMI Nutrition International Inc., Brentwood, Mo.).
The vehicle, used as a reference and for test compounds, was 0.5% methylcellulose dissolved in water. The compounds were either fully dissolved or uniformly suspended in the vehicle when administered to the mice.
The db/db mice were randomly separated into five groups of eight, as were the heterozygous littermates. The groups were as follows: one vehicle control group and four groups that each received one of four doses of topiramate (TPM) (10, 30, 100, or 300 mg/kg, respectively). Topiramate or vehicle was administered orally by gavage once a day during the 8th hour of the light portion of the light-dark cycle.
Between 18 and 24 hours after the last dose was administered, the mice were anesthetized with CO2/O2 (70:30) and blood from the retro-orbital sinus puncture was collected into 2 mL heparinized snap-top polypropylene tubes, then placed in ice.
Plasma was separated from blood cells by centrifugation (15 minutes at 1600 g). For samples not assayed immediately, the plasma was transferred into 96-well plates and frozen at −70° C.
Glucose and triglycerides were assayed using standard procedures for blood clinical laboratories. Specifically, the samples were analyzed using an automated Hitachi 717 autoanalyzer (Boehringer Mannheim/Hitachi 717 Autoanalyzer, Boehringer Mannheim Laboratory Systems Division, Indianapolis, Ind.). A statistical analysis of data for the drug-treated groups compared to data for the vehicle group was performed using the one-way analysis of variance (ANOVA) with Dunnett's Multiple Comparisons test.
Following the procedure described above, the effect of topiramate on plasma glucose and triglyceride levels was determined for female diabetic db/db mice and littermates, following 11 days oral dosage, with results as listed in Table 3 and 4. Body weights are in Table 5. The abbreviation N represents the number of animals per study group.

[3] = system: human epilepsy; conditions: clinical trials; cited from earlier work

## CC1(C)O[C@@H]2[C@@H](CO[C@@]3(COS(N)(=O)=O)OC(C)(C)O[C@@H]23)O1 [Topiramate, 2,3:4,5-bis-O-(1-methylethylidene)-β-D-fructopyranose sulfamate]
[1]; 60 mg/kg/day 6 days then 180 mg/kg/day 112 days in food, end of study, mean±SEM, n=9, P<0.05
  level of blood glucose: 131 ± 13 mg/dL
[1]; Day 41
  Skin lesions Mild (mice): 0
  Skin lesions Moderate (mice): 0
  Skin lesions Severe (mice): 0
  Skin lesions Total (mice): 0
[1]; Day 53
  Skin lesions Mild (mice): 0
  Skin lesions Moderate (mice): 0
  Skin lesions Severe (mice): 0
  Skin lesions Total (mice): 0
[1]; Day 61
  Skin lesions Mild (mice): 0
  Skin lesions Moderate (mice): 0
  Skin lesions Severe (mice): 0
  Skin lesions Total (mice): 0
[1]; Day 70
  Skin lesions Mild (mice): 0
  Skin lesions Moderate (mice): 0
  Skin lesions Severe (mice): 0
  Skin lesions Total (mice): 0
[1]; Day 83
  Skin lesions Mild (mice): 0
  Skin lesions Moderate (mice): 0
  Skin lesions Severe (mice): 0
  Skin lesions Total (mice): 0
[1]; Day 96
  Skin lesions Mild (mice): 0
  Skin lesions Moderate (mice): 0
  Skin lesions Severe (mice): 0
  Skin lesions Total (mice): 0
[1]; Day 97
  Skin lesions Mild (mice): 0
  Skin lesions Moderate (mice): 0
  Skin lesions Severe (mice): 0
  Skin lesions Total (mice): 0
[1]; Day 105
  Skin lesions Mild (mice): 0
  Skin lesions Moderate (mice): 0
  Skin lesions Severe (mice): 0
  Skin lesions Total (mice): 0
[1]; Day 118
  Skin lesions Mild (mice): 0
  Skin lesions Moderate (mice): 0
  Skin lesions Severe (mice): 0
  Skin lesions Total (mice): 0
[1]; day 118
  body weight: 55.1 ± 1.3 g
[1]; day −1, n=9
  body weight: 42.8 ± 1.1 g
[1]; end of 118-day study
  insulin levels versus control: did not differ
[1]; end of 118-day study, mean±SEM, n=9, P<0.01
  Glycosylated hemoglobin: 3.16±0.1
[1]; nine topiramate-treated mice, 118-day period
  mice that ever developed skin lesions: none
[1]; throughout the 118-day study
  body weight gain versus control: similar
[1]; topiramate-treated versus control at end of 118-day study
  blood glucose difference between groups: 52%
[1]; versus surviving control mice, end of 118-day study
  Glycosylated hemoglobin reduction with topiramate treatment: 48%
[2]; 10 mg/kg oral once a day
  Plasma Glucose % Change: −1.2%
  Plasma Triglycerides % Change: −0.3%
  Change in Body Weight: 0.5 ± 0.2 g
  Plasma Glucose Plasma Conc.: 145 ± 6 mg/dL
  Plasma Triglycerides Plasma Conc.: 141 ± 13 mg/dL
[2]; 30 mg/kg oral once a day
  Plasma Glucose % Change: +3.8%
  Plasma Triglycerides % Change: −17.5%
  Change in Body Weight: 0.0 ± 0.3 g
  Plasma Glucose Plasma Conc.: 152 ± 6 mg/dL
  Plasma Triglycerides Plasma Conc.: 116 ± 6 mg/dL
[2]; 100 mg/kg oral once a day
  Plasma Glucose % Change: +0.8%
  Plasma Triglycerides % Change: −34.8%
  Change in Body Weight: 0.2 ± 0.2 g
  Plasma Glucose Plasma Conc.: 148 ± 7 mg/dL
[2]; 100 mg/kg oral once a day, P < 0.01
  Plasma Triglycerides Plasma Conc.: 92 ± 6 mg/dL
[2]; 300 mg/kg oral once a day
  Plasma Glucose % Change: −17.2%
  Plasma Triglycerides % Change: −1.8%
  Plasma Triglycerides Plasma Conc.: 138 ± 15 mg/dL
[2]; 300 mg/kg oral once a day, P < 0.01
  Plasma Glucose Plasma Conc.: 121 ± 7 mg/dL
[2]; 300 mg/kg oral once a day, P < 0.05
  Change in Body Weight: -2.2 ± 0.5 g
[3]
  efficacy as adjunctive therapy or monotherapy in simple and complex partial seizures and secondarily generalized seizures: effective
